Results as given in ChEMBL document CHEMBL1201862, “PubChem BioAssay data set” (2004).
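How tested: cells in 96-well plates exposed to compound for 48 hours at five concentrations. Abbreviation: GI50, concentration required for 50% inhibition of growth.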 Active and inactive are the calls of the source. Rule as the data show it: active = GI50 up to about 1.1 µM and inactive = higher.

Tests used:
Assay in all cases: DTP human tumour cell line panel, 48 h
K562 = tested on: K562
OVCAR-4 = tested on: OVCAR-4
EKVX = tested on: EKVX
OVCAR-3 = tested on: OVCAR-3
NCI-H226 = tested on: NCI-H226
MCF7 = tested on: MCF7
T47D = tested on: T47D
UACC-257 = tested on: UACC-257
CAKI-1 = tested on: CAKI-1
SF-268 = tested on: SF-268
HOP-92 = tested on: HOP-92
MDA-MB-435 = tested on: MDA-MB-435
786-0 = tested on: 786-0
TK-10 = tested on: TK-10
SNB-75 = tested on: SNB-75
UO-31 = tested on: UO-31
SN12C = tested on: SN12C
LOX IMVI = tested on: LOX IMVI
Hs-578T = tested on: Hs-578T

SMILES	GI50 (K562)	GI50 (OVCAR-4)	GI50 (EKVX)	GI50 (OVCAR-3)	GI50 (NCI-H226)	GI50 (MCF7)	GI50 (T47D)	GI50 (UACC-257)	GI50 (CAKI-1)	GI50 (SF-268)	GI50 (HOP-92)	GI50 (MDA-MB-435)	GI50 (786-0)	GI50 (TK-10)	GI50 (SNB-75)	GI50 (UO-31)	GI50 (SN12C)	GI50 (LOX IMVI)	GI50 (Hs-578T)
O=C(O)CN(CC(=O)O)c1ccccc1	35 µM (inactive)	81.7 µM (inactive)	> 100 µM (inactive)	75.2 µM (inactive)	> 100 µM (inactive)	> 100 µM (inactive)	37.3 µM (inactive)	18.2 µM (inactive)	> 100 µM (inactive)	> 100 µM (inactive)	48.9 µM (inactive)	70.6 µM (inactive)	> 100 µM (inactive)	> 100 µM (inactive)	> 100 µM (inactive)	> 100 µM (inactive)	> 100 µM (inactive)	> 100 µM (inactive)	80 µM (inactive)
COc1cc(OC)c2c(O)c3c(cc2c1)CC(C)(C)CC3=O	–	32.1 µM (inactive)	> 100 µM (inactive)	> 74.1 µM (inactive)	> 100 µM (inactive)	> 100 µM (inactive)	> 100 µM (inactive)	> 100 µM (inactive)	> 100 µM (inactive)	> 100 µM (inactive)	> 100 µM (inactive)	19.4 µM (inactive)	> 67.3 µM (inactive)	> 100 µM (inactive)	49.7 µM (inactive)	> 100 µM (inactive)	> 100 µM (inactive)	> 100 µM (inactive)	16.3 µM (inactive)
CCOC(=O)C(NC(=O)CC)(Nc1ccc(S(=O)(=O)Nc2nc(C)cc(C)n2)cc1)C(F)(F)F (configuration not stated)	> 100 µM (inactive)	> 100 µM (inactive)	> 100 µM (inactive)	> 100 µM (inactive)	> 100 µM (inactive)	36.6 µM (inactive)	> 100 µM (inactive)	> 100 µM (inactive)	> 100 µM (inactive)	> 100 µM (inactive)	> 100 µM (inactive)	> 100 µM (inactive)	> 100 µM (inactive)	> 100 µM (inactive)	> 100 µM (inactive)	> 100 µM (inactive)	> 100 µM (inactive)	> 100 µM (inactive)	> 100 µM (inactive)
CC1(C)C(=O)C2(OS(=O)(=O)C(F)(F)F)CCC1C2 (configuration not stated)	> 100 µM (inactive)	> 100 µM (inactive)	> 100 µM (inactive)	> 100 µM (inactive)	> 100 µM (inactive)	> 100 µM (inactive)	> 100 µM (inactive)	> 100 µM (inactive)	> 100 µM (inactive)	> 100 µM (inactive)	> 100 µM (inactive)	> 100 µM (inactive)	> 100 µM (inactive)	> 100 µM (inactive)	> 100 µM (inactive)	> 100 µM (inactive)	> 100 µM (inactive)	> 100 µM (inactive)	> 100 µM (inactive)
N=c1oc2c(Br)cc(Br)cc2cc1C(=O)Nc1ccccn1	> 100 µM (inactive)	68.9 µM (inactive)	> 100 µM (inactive)	32.3 µM (inactive)	84.9 µM (inactive)	39.9 µM (inactive)	38.8 µM (inactive)	> 100 µM (inactive)	> 100 µM (inactive)	78.9 µM (inactive)	> 100 µM (inactive)	62.1 µM (inactive)	36.5 µM (inactive)	–	> 100 µM (inactive)	–	> 100 µM (inactive)	> 100 µM (inactive)	64.4 µM (inactive)
COC1(CC[C@@H](C)COC2OC(CO)C(O)C(O)C2O)O[C@H]2C[C@H]3[C@@H]4CC=C5C[C@@H](OC6OC(CO)C(OC7OC(C)C(O)C(O)C7O)C(O)C6OC6OC(C)C(O)C(O)C6O)CC[C@]5(C)[C@H]4CC[C@]3(C)[C@H]2[C@@H]1C (some centres not stated)	18.2 µM (inactive)	3.54 µM (inactive)	22.1 µM (inactive)	2.36 µM (inactive)	9.18 µM (inactive)	6.28 µM (inactive)	6.08 µM (inactive)	3.51 µM (inactive)	1.53 µM (inactive)	3.18 µM (inactive)	3.25 µM (inactive)	2.02 µM (inactive)	2.02 µM (inactive)	17.2 µM (inactive)	2.06 µM (inactive)	2.92 µM (inactive)	5.85 µM (inactive)	1.73 µM (inactive)	2.55 µM (inactive)
CNC(=O)O/N=C1\N(C)CN(c2ccccc2)C12CCN(CCCC(=O)c1ccc(F)cc1)CC2	38.5 µM (inactive)	27.6 µM (inactive)	> 100 µM (inactive)	55.1 µM (inactive)	> 100 µM (inactive)	47.9 µM (inactive)	> 100 µM (inactive)	20.1 µM (inactive)	> 100 µM (inactive)	> 100 µM (inactive)	35.6 µM (inactive)	45.9 µM (inactive)	75.5 µM (inactive)	79.4 µM (inactive)	1.01 µM (active)	90.8 µM (inactive)	> 100 µM (inactive)	31.1 µM (inactive)	> 100 µM (inactive)
O=C1CCC2(CC1CCSc1ccccc1)OCCO2 (configuration not stated)	> 100 µM (inactive)	> 100 µM (inactive)	> 100 µM (inactive)	> 100 µM (inactive)	> 100 µM (inactive)	> 100 µM (inactive)	> 100 µM (inactive)	> 100 µM (inactive)	> 100 µM (inactive)	> 100 µM (inactive)	> 100 µM (inactive)	> 100 µM (inactive)	> 100 µM (inactive)	> 100 µM (inactive)	> 100 µM (inactive)	> 100 µM (inactive)	–	98.9 µM (inactive)	> 100 µM (inactive)
CCCCCCCCCCCCCCCCCCNc1ccn(C2OC(COP(=O)(O)OC3CC(n4cc(F)c(=O)[nH]c4=O)OC3COP(=O)(O)OCC3OC(n4ccc(N)nc4=O)C(O)C3O)C(O)C2O)c(=O)n1 (configuration not stated)	16.6 µM (inactive)	41.7 µM (inactive)	32 µM (inactive)	30.5 µM (inactive)	> 24 µM (inactive)	0.276 µM (active)	24.5 µM (inactive)	22.6 µM (inactive)	4.47 µM (inactive)	–	> 60.4 µM (inactive)	8.18 µM (inactive)	1.31 µM (inactive)	2.56 µM (inactive)	38.6 µM (inactive)	11.5 µM (inactive)	15.8 µM (inactive)	0.139 µM (active)	> 67.8 µM (inactive)
NCCCN(CCCCN(CCCN)Cc1ccccc1)Cc1ccccc1	54.2 µM (inactive)	28.6 µM (inactive)	21.2 µM (inactive)	–	21.2 µM (inactive)	25.1 µM (inactive)	> 100 µM (inactive)	62.1 µM (inactive)	15.8 µM (inactive)	14.3 µM (inactive)	> 10 µM (inactive)	56.1 µM (inactive)	23.1 µM (inactive)	> 100 µM (inactive)	4.57 µM (inactive)	26.1 µM (inactive)	16 µM (inactive)	19.3 µM (inactive)	13 µM (inactive)
CCCCc1c2c(c(C)c3c1C(=O)OC3)Oc1ccccc1O2	0.379 µM (active)	3.56 µM (inactive)	–	0.274 µM (active)	2.8 µM (inactive)	1.63 µM (inactive)	5.11 µM (inactive)	0.428 µM (active)	5.74 µM (inactive)	1.64 µM (inactive)	10.2 µM (inactive)	0.173 µM (active)	1.5 µM (inactive)	2.29 µM (inactive)	0.562 µM (active)	5.77 µM (inactive)	1.85 µM (inactive)	2.25 µM (inactive)	0.628 µM (active)
